Patent US20250090557A1 (priority 2020, published 2025)
Read-outs that look alike come from different tables or passages of the source.

Key:
Nrf2 = Nrf2 protein levels in Calu3 cells (flow cytometry); format: cell-based, human; conditions: infected and uninfected Calu3, pretreatment, data not shown
STING = STING protein levels in Calu3 cells (flow cytometry); format: cell-based, human; conditions: SARS-CoV-2 infected Calu3 cells, data not shown
Vero cells = conditions: uninfected Vero cultures, 10-1000 nM
SARS-CoV-2 [1] = assay: SARS-CoV-2 infection of K18-hACE2 transgenic mice, lung viral titer; format: in vivo, mouse; conditions: 4 mg/kg per day intraperitoneally, 72 h post infection
Procedure: K18-hACE2 transgenic mice were infected with SARS-CoV-2 (10,000 PFU per mouse) intranasally and treated with Mito-MES (4 mg/kg per day intraperitoneally) (n=10) vs vehicle control (Ctrl) (saline 1% DMSO) (n=5 mice). Five mice (n=5) were treated with Mito-MES for 48 h before SARS-COV-2 infection and throughout the infection for 3 days (5 days in total) until mice were sacrificed 72 h post infection. Five mice (n=5) were treated with Mito-MES 8 h after the infection for 3 days (3 days in total) until mice were sacrificed 72 h post infection. The left lung was harvested from all mice, tissue was homogenized in mechanical dissociator and the supernatant was cryopreserved until it was used for viral titer. Viral titer was determined by two independent methods based on cytopathic effect (CPE) effect in Vero-E6 cells and based on an ELISA immunoassay that detected the presence of SARS-CoV-2 Spike S protein in Vero-E6 cells infected with lung supernatants from infected mice. FIG. 7-a summarizes the results of the viral replication by TCID50-assay based on CPE method. FIG. 7-b summarizes the results of the viral replication by TCID50-assay based on ELISA assay. Bars indicate mean±s.e.m.
The in vivo antiviral activity of Mito-MES was evaluated in mice. […] Specifically, K18-hACE2 transgenic mice, which express human ACE2, were infected with SARS-CoV-2.

[2] = test system: ACE2, CD147, NRP1 and TMPRSS2; assay: Host entry factor protein levels in Calu3 cells (flow cytometry); format: cell-based, human; conditions: Calu3, compared to uninfected cells, data not shown
SARS-CoV-2 [3] = format: cell-based
SARS-CoV-2 [4] = format: cell-based; remark: listed apart in the source
cleaved caspase 3 [5] = format: cell-based, African green monkey; conditions: Vero
[6] = humans, doses up to at least 80 mg/day for at least a year; cited from earlier work
[7] = mice, tissues including liver and kidney, ≥10 days oral supplementation; cited from earlier work
MAVS = MAVS protein levels in Calu3 cells (flow cytometry); format: cell-based, human; conditions: total and SARS-CoV-2 infected Calu3 cells, data not shown
Keap1 = Keap1 protein levels in Calu3 cells (flow cytometry); format: cell-based, human; conditions: infected and uninfected Calu3, pretreatment, data not shown
[8] = Toxicity and mutagenicity in mice; conditions: mouse, in vivo
SARS-CoV-2 [9] = assay: SARS-CoV-2 infection of HEK293T-hACE2 cells (flow cytometry); format: cell-based; conditions: HEK293T-hACE2, 100 nM, 72 h
cleaved caspase 3 [10] = format: cell-based, human
[11] = cited from earlier work
TOM70 = TOM70 protein levels in Calu3 cells (flow cytometry, immunofluorescence); format: cell-based, human
MX1 = format: cell-based, human; conditions: infected Calu3, vs vehicle treated
SARS-CoV-2 [12] = assay: SARS-CoV-2 infection of air-liquid interface human airway epithelium cultures (flow cytometry); format: cell-based; conditions: 100 nM, 72 h
IL-6 = format: cell-based, human
[13] = test system: mitochondrial reactive oxygen species (mito-ROS); format: cell-based, human

## COC1=C(OC)C(=O)C(CCCCCCCCCC[P+](c2ccccc2)(c2ccccc2)c2ccccc2)=C(C)C1=O.CS(=O)(=O)[O-] [Mito-MES, 10-(4,5-dimethoxy-2-methyl-3,6-dioxo-1,4-cyclohexadienyl) decyl triphenylphosphonium methanesulfonate]
Nrf2
  protein levels of Nrf2: did not impact protein levels of Nrf2
STING
  STING protein levels: did not impact STING
Vero cells
  cytotoxicity (XTT assay): no observed cytotoxicity
SARS-CoV-2 [1]
  lung viral titers (TCID50 by CPE and ELISA) compared to vehicle: viral titers were lower
[2]
  protein levels of ACE2, TMPRSS2, NRP1 and CD147: Neither SARS-CoV-2 infection nor Mito-MES significantly modulates
SARS-CoV-2 [3]
  antiviral activity by immunofluorescence (spike S protein): modest antiviral activity
SARS-CoV-2 [3]; Vero cells
  viral genomic RNA in cell lysates (qPCR): confirmed by qPCR
SARS-CoV-2 [3]; Vero cells, viable single cells
  percent of infected cells positive for N protein and Spike S protein (flow cytometry): reduced the percent of infected cells
SARS-CoV-2 [3]; Vero cells, vs 5 μM remdesivir
  antiviral activity relative to positive control remdesivir (TCID50): modest compared to 5 μM remdesivir
SARS-CoV-2 [4]; Calu3
  concentration at which potent antiviral activity is exhibited (immunofluorescence and PCR): ≤ 10 nM
SARS-CoV-2 [4]; Calu3, 10 nM Mito-MES alone
  viral titers vs vehicle control (TCID50): reduced viral titers
SARS-CoV-2 [4]; Calu3, 100 nM and 1000 nM
  reduction of release of progeny virus (TCID50 of cell supernatants): > 2 logs
Cleaved caspase 3 [5]; 100 nM
  percent of infected cells positive for cleaved caspase 3 and MFI per cell (flow cytometry): inhibits or reduces SARS-CoV-2-induced increase
Cleaved caspase 3 [5]; 10-1000 nM
  SARS-CoV-2-induced cleavage of caspase 3 (immunofluorescence): reduced by Mito-MES treatment
[6]
  adverse events: without any serious adverse events
[7]
  accumulation in tissues: 50 to 700 pmol/g (wet weight)
MAVS
  MAVS protein levels: did not modulate MAVS protein levels
Keap1
  protein levels of Keap: reduced protein levels of Keap
[8]
  human equivalent dose relative to the doses administered to A1 and A2 (20 mg/day): about 60 fold
SARS-CoV-2 [9]
  percent of SARS-CoV-2 infected cells (flow cytometry): significantly reduced the percent of SARS-CoV-2 infected human non-cancerous HEK293T epithelial cells
Cleaved caspase 3 [10]; Calu3, 100 nM
  percent of infected cells positive for cleaved caspase 3 and MFI per cell (flow cytometry): inhibits or reduces SARS-CoV-2-induced increase
Cleaved caspase 3 [10]; Calu3, 10-1000 nM
  SARS-CoV-2-induced cleavage of caspase 3 (immunofluorescence): reduced by Mito-MES treatment
[11]; chronic supplementation about 40-80 mg/day, after about 10 days
  average elevation of fasting plasma concentrations: about 5 ng/mL
[11]; humans, single 40 mg oral dose, after 24 h
  plasma concentration: about 2 ng/ml
TOM70
  TOM70 protein levels (flow cytometry): increased TOM70 protein levels
  TOM70 protein levels (immunofluorescence): dose-dependent increase in TOM70 protein levels
MX1
  MX1 protein levels: increased MX1 protein levels
SARS-CoV-2 [12]; ALI HAE cultures
  percent of SARS-CoV-2 infected FOXJ1+ ciliated epithelial cells (flow cytometry): significantly reduced the percent of SARS-CoV-2 infected human FOXJ1^+ ciliated epithelial cells
SARS-CoV-2 [12]; primary HAE ALI cultures
  percent of SARS-CoV-2 infected human lung epithelial cells (flow cytometry): significantly reduced the percent of SARS-CoV-2 infected human lung epithelial cells
IL-6
  secretion of IL-6 resulting from SARS-CoV-2 infection (ELISA): attenuated the increase in secretion of IL-6
[13]
  mito-ROS generation (MitoSOX Red MFI and percent positive cells): reduced mito-ROS generation
